Measured values published in patent US12133843B2, “IL-8 inhibitors for use in the treatment and/or prevention of bacterial secondary infections” (priority 2017, dated 2024).

Key:
[1] = test system: H1N1 influenza virus plus cigarette smoke; assay: Lung inflammation exacerbation model combining H1N1 influenza infection and cigarette smoke exposure (Cs-H1N1); format: in vivo, female C57BL/6 mice; details: survival assay, once a day for 7 days from day of infection
Text: Viral infections are among the principal causes of COPD exacerbations (Mackay, A. J. & Hurst, J. R. Immunol Allergy Clin North Am 33, 95-115; 2013). For that reason, the inventors combined influenza infection and cigarette smoke exposure (Cs) in mice in order to model COPD exacerbation. The inventors essentially exposed female C57BL/6 mice to Cs for 12 days and infect them with 1000 pfu of H1N1 influenza virus at day 7 after starting daily Cs exposure (Cs-H1N1).

[2] = test system: Influenza A/WSN/33 H1N1 (IAV); assay: Single IAV infection in mice, treatment with CXCR1/CXCR2 antagonist; format: in vivo, C57BL/6J mice; details: 10^4 PFU IAV
[3] = test system: Streptococcus pneumoniae (ATCC 6303 serotype 3); assay: Single pneumococcal infection (pneumonia) in mice; format: in vivo, C57BL/6J mice; details: S. pneumoniae i.n.
[4] = test system: S. pneumoniae secondary infection after IAV; format: in vivo, C57BL/6J mice
neutrophil influx = details: this dose and schedule (10 mg/kg oral gavage); cited from earlier work
[5] = in vivo; cited from earlier work
[6] = 10 mg/kg twice a day for 5 days, day 5, BAL
[7] = 10 mg/kg twice a day for 5 days, day 5, BAL fluid ELISA
[8] = 10 mg/kg at 6, 12, 24, 36 h, 48 h after infection, BALF

## C[C@@H](C(=O)NS(C)(=O)=O)c1ccc(OS(=O)(=O)C(F)(F)F)cc1 [DF2156A]
[1]; Cs-H1N1 mice, LD50 of influenza virus
  Mortality rate: slightly reduced
[1]
  Mice mortality, delay (survival curve vs Cs-H1N1 group): significantly delayed

## C[C@@H](C(N)=O)c1ccc(OS(=O)(=O)C(F)(F)F)cc1 [DF2162, R(−)-2-[(4′-trifluoromethanesulfonyloxy)phenyl]propionamide]
[2]; 10 mg/kg oral gavage twice a day, day 0 to 5, vs vehicle
  Weight loss (morbidity): reduction of weight loss
[2]; 10 mg/kg twice a day for 5 days, H&E slides
  Histological analysis of lungs: bronchiolar and vascular inflammation: reduced bronchiolar and vascular inflammation
[2]; 10 mg/kg twice a day for 5 days, day 5
  Levels of MPO in the lungs: did not reduce
[2]; [6]
  Neutrophils in the airways: decreased
  Number of leukocytes recruited into the airways: decreased
[2]; [7]
  Levels of CXCL1 in the airways: decreased
  Levels of IL-6 in the airways: did not reduce
  Levels of TNF-α in the airways: decreased
[2]; 10 mg/kg twice a day for 5 days, day 5, plaque assay, vs vehicle
  Viral loads in the lungs: reduced
[2]; 10 mg/kg twice a day for 5 days, day 5, score max 18 points
  Lung injury (histopathological score): reduced the lung injury
[3]; 10 mg/kg at 6, 12, 24, 36 h, 48 h, score max 18 points
  Lung injury (overall pathological score): reduced the lung injury
[3]; 10 mg/kg at 6, 12, 24, 36 h, 48 h after infection
  Neutrophils in the lungs: reduction in neutrophils
[3]; [8]
  Neutrophils recruited into the airways: decreased
  Number of leukocytes recruited into the airways: decreased number of leukocytes
[3]; 10 mg/kg twice a day for 2 days, followed 10 days
  Lethality: protected mice from lethality
[4]; mouse, in vivo
  Levels of IL-10 in BAL fluid: decreased
[4]; mouse, in vivo, 10 mg/kg
  Mortality after secondary infection: delayed mortality
  Weight loss: reduced the weight loss
[4]; treated days 3-6 of IAV, […]
  Histopathological lung damage (overall score of lung injury): decreased such histopathological lung damage
  Levels of CXCL-1 in BAL fluid: prevented the increase
  Levels of IL-6 in BAL fluid: prevented the increase
  Levels of IL-12 in BAL fluid: prevented the increase
  Levels of TNF-α in BAL fluid: prevented the increase
  Number of bacteria in the blood: reduction in number of bacteria
  Recruitment of neutrophils into the lungs (MPO assay): decreased recruitment of neutrophils
[4]; treated days 3-6 of IAV, […], BAL
  Recruitment of neutrophils into the airways: decreased recruitment of neutrophils
[4]; treated days 3-6 of IAV, […], Bradford assay
  Levels of protein in BALF (protein leakage): decreased the levels of protein in BALF
Neutrophil influx
  Neutrophil influx in other models: significant inhibition of neutrophil influx
[5]
  Half-life: long half-life

## C[N+]1(C)[C@@H]2C[C@@H](OC(=O)C(O)(c3cccs3)c3cccs3)C[C@H]1[C@@H]1O[C@@H]12 [Tiotropium, reference compound]
[1]
  Mice mortality, delay (survival curve vs Cs-H1N1 group): no significant differences
